From patent US10174314B2, “MiRNA for treating head and neck cancer” (INTERNA TECHNOLOGIES B.V., priority 2011, dated 2019)
pIC50: −log10 of the molar value. Entries after “also recorded” stand apart in the source; their conditions may differ.

Key:
[1] = test system: VU-SCC-120; assay: ATM inhibitor treatment, CellTiter-Blue cell viability; assay type: cell-based, human
Method: (§1) Both ciOKC and VU-SCC-120 cells were subjected to a concentration range of 40-0.075 μM ATM inhibitor CP466722 (Axon Medchem, Groningen, The Netherlands). After 72 hours cell viability was assessed with the CellTiter-Blue® cell viability assay.

[2] = test system: ciOKC cells; assay: as above; assay type: cell-based, human; conditions: 72 hours
Method: as §1

[3] = test system: ATM expression; assay: Knockdown of endogenous ATM expression by shRNA constructs, qRT-PCR in ciOKC; assay type: cell-based, human; conditions: ciOKC transduced with shRNA; qRT-PCR vs control construct
Method: (§2) Viral supernatants were produced by co-transfection of HEK239T cells using FuGENE® 6 (Roche diagnostics, Woerden, The Netherlands) with the pLKO.1 short-hairpin vector together with the packaging and envelop vectors. Both ciOKC and VU-SCC-120 (HNSCC cell line) were transduced with lentiviruses at two following days for four hours in the presence of 3 μg/ml polybrene (Sigma-Aldrich, Zwijndrecht, The Netherlands). In total 48 hours after transduction, cells were subjected to puromycin selection. For ciOKC this was two days 5 μg/ml and subsequently 5 days of 10 μg/ml puromycin (Sigma-Aldrich). For VU-SCC-120 the selection was performed with 1 μg/ml for seven days.
Total RNA was isolated using the mirVana™ miRNA isolation kit (Ambion, Nieuwerkerk aan den IJssel, The Netherlands) according to the instructions of the manufacturer with as only modification that the columns were eluted by 2×25 μl elution buffer. Expression of hsa-miR-181a, hsa-miR-323, hsa-miR-326, hsa-miR-342, hsa-miR-345 and hsa-miR-371 was analyzed by Taqman® microRNA assays following the instructions of the manufacturer (Applied biosystems, Nieuwerkerk aan den IJssel, The Netherlands). ATM expression was analysed by Taqman® gene expression assay. […] Quantitative RT-PCR reactions without reverse transcriptase were carried out in parallel for each RNA sample to exclude signal by contaminating DNA. […]

[4] = test system: precursor line M3; assay: Synthetic mimic transfection, cell viability; assay type: cell-based, human; conditions: 30 nM mimic, 96 hours after transfection
Method: (§3) Cells were plated and transfected with miRIDIAN microRNA mimics miR-181a, miR-181a*, miR-181a-2, miR-323-5p, miR-323-3p, miR-326-5p, miR-345-5p, miR-342-3p, miR-342-5p, miR-371-3p, miR-371-5p and non-targeting Mimic Negative Control#1 (Dharmacon, Thermo Fisher Scientific, Lafayette, Colo.) in 96-well flat bottom plates (Greiner Bio-One B.V., Alphen a/d Rijn, The Netherlands). MicroRNA mimic for miR-3157 was obtained from Ambion. The non-targeting siCONTROL#1, and the siRNA PLK1 SMARTpool (Dharmacon) were used as negative and positive controls, respectively. Cells were transfected with […] mimic/siRNA and cell line dependent amounts of DharmaFECT1 (Dharmacon) (Table 6). Cell viability was determined, 96 hours after transfection, by adding CellTiter-Blue reagent (Promega, Leiden, The Netherlands). After two hours of incubation at 37° C. fluorescence was analyzed at 540 nm excitation and 590 nm emission wavelength using an Infinite F200 microplate reader (Tecan, Giessen, The Netherlands).
(§4) The cell proliferation has been assessed 96 hours after the transfection of nucleic acids using Dharmafect and the read-out based on the Alamar Blue (resazurin) fluorescent dye for the assessment of mammalian cell cytotoxicity.

[5] = test system: normal keratinocytes; assay: miRNA-3157 mimic transfection, cell viability; assay type: cell-based, human; conditions: 30 nM, 96 hours
Method: as §3
Normal oral keratinocytes were isolated and cultured as previously described (van Zeeburg et al., 2010). […]
as §4

[6] = test system: melanoma or colorectal cancer cells; conditions: Poell et al. 2012; cited from earlier work
[7] = test system: tumour cell lines; assay: Synthetic mimic/siRNA transfection, CellTiter-Blue cell viability, panel of cell lines; assay type: cell-based, human; conditions: 30 nM mimic, 96 hours after transfection
Method: as §3, §4

[8] = test system: activated BRAF pathway; conditions: in melanoma or colorectal cancer cells; reported; cited from earlier work
[9] = test system: VU-SCC-120; assay: miRNA-3157 mimic transfection, cell viability; assay type: cell-based, human; conditions: 30 nM, 96 hours
Method: as §3, §4

[10] = test system: UM-SCC-11B; assay: miRNA-3157 mimic transfection, cell viability; assay type: cell-based, human; conditions: 30 nM, 96 hours
Method: as §3, §4

[11] = test system: VU-SCC-059; assay: miRNA-3157 mimic transfection, cell viability; assay type: cell-based, human; conditions: 30 nM, 96 hours
Method: as §3, §4

[12] = test system: VU-SCC-120; assay: Lentiviral shRNA ATM knockdown, cell survival; assay type: cell-based, human; conditions: VU-SCC-120 vs ciOKC
From the text: Lentiviral vectors with short-hairpin RNA sequences targeting ATM were obtained from the TRC short-hairpin library (Sigma-Aldrich, Zwijndrecht, the Netherlands) that is available at VU university medical center. Each shRNA sequence is complementary to an unique part of the ATM mRNA sequence.
as §2
Therefore we introduced five lentiviral shRNA constructs designed to specifically knockdown ATM expression. Each shRNA sequence was complementary to an unique part of the ATM mRNA sequence.

For `COc1cc2ncnc(-n3nc(-c4ccccn4)nc3N)c2cc1OC` [CP466722], the pIC50 ([1]; VU-SCC-120, 72 hours) was 5.59, the “change of IC50 ciOKC to VU-SCC-120” value ([1]; p-value <0.05 by T-testing) was 3 fold and the pIC50 [2] was 5.09.
In the case of “ATM shRNA number 5: lentiviral pLKO.1 short-hairpin construct targeting ATM from the TRC library; probably SEQ ID NO: 359 (CCGGGCCGTCAACTAGAACATGATACTCGAGTATCATGTTCTAGTTGACGGCTTTTTG)”, the “downregulation of ATM expression levels” value [3] was “no significant downregulation”.
For “miRNA-3157: microRNA mimic for miR-3157 from Ambion; mature UUCAGCCAGGCUAGUGCAGUCU (SEQ ID NO: 364) (listed as RNA, chemistry not given here)”, the “cell viability in precursor line M3” value [4] is listed as “not lethal”, the cell viability [5] is listed as “not lethal; also recorded: does not inhibit cell viability” and the “lethality to melanoma or colorectal cancer cells” value [6] is listed as “lethal”. The “cell viability in tumour cell lines” value [7] was “lethal for three out of four tumor cell lines”, the “inhibition of activated BRAF pathway” value [8] was “selective inhibitor of activated BRAF pathway” and the cell viability [9] was “inhibits cell viability”. For the same molecule, the cell viability [10] was “inhibits cell viability” and the cell viability [11] was “inhibits cell viability”.
For “mimic 323-5p: miRIDIAN microRNA mimic (Dharmacon); AGGUGGUCCGUGGCGCGUUCGC (SEQ ID NO: 22) (listed as RNA, chemistry not given here)”, the “cell viability in tumour cell lines” value [7] was “cause a decrease in all tumour cell lines”.
In the case of “shRNA ATM1: lentiviral pLKO.1 short-hairpin construct targeting ATM from the TRC library; probably SEQ ID NO: 355 (CCGGCCTGCCAACATACTTTAAGTACTCGAGTACTTAAAGTATGTTGGCAGGTTTTTG)”, the “toxicity in the tumour cell line as compared to the ciOKC cells (therapeutic window)” value [12] was “at least 8 times”.
